US9234848B2, “Compounds having chromophore and photoreactive groups” (CENTRE NATIONAL DE LA RECHERCHE SCIENTIFIQUE (C.N.R.S.), priority 2011, dated 2016)

Molecular target: T1, Halobacterium salinarum bacterio-rhodopsin (Halobacterium salinarum, UniProt P02945)
T1 construct: purchased SIGMA
T1 sequence (P02945 14-262): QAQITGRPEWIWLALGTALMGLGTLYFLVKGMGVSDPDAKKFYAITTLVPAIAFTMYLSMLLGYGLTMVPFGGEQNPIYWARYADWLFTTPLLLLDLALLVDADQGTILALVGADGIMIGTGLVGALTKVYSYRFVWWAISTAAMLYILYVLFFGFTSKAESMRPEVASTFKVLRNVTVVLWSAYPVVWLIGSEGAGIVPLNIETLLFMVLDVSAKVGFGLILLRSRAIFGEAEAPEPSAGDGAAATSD
Assay: Photomarking of bacteriorhodopsin (covalent bridging after UV irradiation, fluorescence detected on gel)
Assay type: biochemical
Details: compound in DPC micelles (1:50 molar), protein-compound molar ratio 1:5, 1 hour in darkness at 4° C., 45 s UV irradiation, gel read on Fluorimager with rhodamine filter
Procedure: • Reagents: • Dodecylphosphocholine (DPC) and Halobacterium salinarum bacterio-rhodopsin are from SIGMA. Egg yolk phosphatidylcholine (PC) and cholesterol (chol, 99% pure) are from Avanti Polar Lipids (Alabaster, USA). • Preparation of the Liposomes: • PC, chol and the lipid tool (12a-c) (molar ratio 65:30:5) dissolved in chloroform are mixed in a test tube. After evaporation of the solvent with heat (45 mins at 37° C.), the dry film is hydrated by adding 300 μl of PBS at pH 7.4 in order to obtain a final concentration of lipids of 5 mM. The mixture is stirred and the resulting suspension is heated to 37° C., and then cooled in liquid nitrogen 5 times, and then passed through an extruder equipped with two 100 nm filters (35 passages). • Fluorescence Spectroscopy: • The excitation and emission spectra of the probe compounds according to the invention, within liposomes are recorded at 32° C. on a TECAN Infinite M1000 spectrofluorimeter. The lipid composition of the liposomes is PC:chol:lipid-tool 65:30:5 (molar ratio). The <> control liposomes consist of PC:chol, and their residual fluorescence is subtracted from the measured fluorescence spectra. • Photomarking of Bacteriorhodopsin: • DPC is added to a compound as a solution in chloroform-methanol (2/1, v/v) in the compound/detergent proportion of 1:50 molar. After evaporation in a high vacuum for 2 hours, the dry lipid film is hydrated by adding 50 μL of distilled water and 50 μl of Tris-HCl pH 8.0. The bacterio-rhodopsin resuspended in distilled water, is incubated with the compounds according to invention in detergent micelles, in a protein-compound molar ratio of 1:5. […] After migration, the gel is first analyzed on a Fluorimager Typhoon 8600 equipped with a rhodamine filter, in order to detect fluorescence; the gel is then colored with Coomassie blue for viewing all the protein bands. […]

Structure (SMILES)	Intensity of the photomarking signal (arbitrary units - AU) [AU]
CCCCCCCCCCc1ccc(C(=O)c2ccc(CC(=O)O)cc2)cc1 [1c, (4-(4-decylbenzoyl)phenyl)ethanoic acid]	1
Cc1ccc(C(=O)c2ccc(CCCCCCCCCCC(=O)O)cc2)cc1 [1b]	10
CCCCCCc1ccc(C(=O)c2ccc(CCCCCC(=O)O)cc2)cc1 [1a, 6-(4-(4-n-hexylbenzoyl)phenyl)hexanoic acid]	5
